Structures are written as SMILES. The source made the active and inactive calls. The calls are words filed in the database; no cut-off is given here.

Test [1] concerns the target T1, PPAR alpha/gamma (Homo sapiens) (UniProt P37231+Q07869). Kind of test: Agonist activity at PPARalpha/PPARgamma in human NHEK cells assessed as upregulation of FADS1 mRNA at 10 uM incubated for 3 days by qRT-PCR analysis. Type of test: cell-based. The following applies: filed as agonist, time 3.0 day. On the technique in general: Quantitative PCR measures a nucleic acid by following its amplification.

The test system of test [2] is NHEK. Kind of test: Inhibition of UVB-induced MMP1 mRNA in human NHEK cells at 10 uM incubated for 24 hrs by qRT-PCR analysis. In kind it is functional, cell-based.
The target of test [3] is T1, PPAR alpha/gamma (Homo sapiens). Kind of test: Agonist activity at PPARalpha/PPARgamma in human NHEK cells assessed as upregulation of FADS2 mRNA at 10 uM incubated for 3 days by qRT-PCR analysis. In kind it is cell-based. The following applies: filed as agonist, time 3.0 day.
Test [4] shares this target. Kind of test: Agonist activity at PPARalpha/PPARgamma in human AT-MSC cells assessed as upregulation of adiponectin mRNA at 10 uM incubated for 3 days by qRT-PCR analysis. Type of test: cell-based. The conditions noted are these: Adipose tissue derived mesenchymal stem cell, filed as agonist, time 3.0 day.
In test [5] the target is T2, Peroxisome proliferator-activated receptor alpha (Homo sapiens) (UniProt Q07869).
T2 sequence (whole entry): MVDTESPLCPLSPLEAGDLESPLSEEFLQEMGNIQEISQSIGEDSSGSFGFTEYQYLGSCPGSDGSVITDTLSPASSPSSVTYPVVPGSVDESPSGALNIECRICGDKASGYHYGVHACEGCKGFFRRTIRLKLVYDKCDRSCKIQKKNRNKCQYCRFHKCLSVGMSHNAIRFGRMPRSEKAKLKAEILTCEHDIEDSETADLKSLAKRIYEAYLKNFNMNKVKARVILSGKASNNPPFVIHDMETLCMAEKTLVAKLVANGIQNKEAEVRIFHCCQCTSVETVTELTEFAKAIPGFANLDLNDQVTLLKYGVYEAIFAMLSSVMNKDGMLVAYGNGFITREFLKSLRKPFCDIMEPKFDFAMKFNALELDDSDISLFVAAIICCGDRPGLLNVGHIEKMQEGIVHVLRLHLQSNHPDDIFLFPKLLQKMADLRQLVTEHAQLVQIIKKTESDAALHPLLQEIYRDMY
Description: Binding affinity to human recombinant PPARalpha at 30 uM by competitive binding based TR-FRET assay relative to control. The following applies: filed as agonist.

Test [6] has as its target T1, PPAR alpha/gamma (Homo sapiens). Kind of test: Agonist activity at PPARalpha/PPARgamma in human NHEK cells assessed as upregulation of SCD1 mRNA at 10 uM incubated for 3 days by qRT-PCR analysis. In kind it is cell-based. The following applies: filed as agonist, time 3.0 day.
Test [7] shares this target. Description: Agonist activity at PPARalpha/PPARgamma in human AT-MSC cells assessed as upregulation of ACACB mRNA at 10 uM incubated for 3 days by qRT-PCR analysis. In kind it is cell-based. The conditions noted are these: Adipose tissue derived mesenchymal stem cell, filed as agonist, time 3.0 day.
For test [8], the target named is T3, Glucocorticoid receptor (Homo sapiens) (UniProt P04150).
T3 sequence (whole entry): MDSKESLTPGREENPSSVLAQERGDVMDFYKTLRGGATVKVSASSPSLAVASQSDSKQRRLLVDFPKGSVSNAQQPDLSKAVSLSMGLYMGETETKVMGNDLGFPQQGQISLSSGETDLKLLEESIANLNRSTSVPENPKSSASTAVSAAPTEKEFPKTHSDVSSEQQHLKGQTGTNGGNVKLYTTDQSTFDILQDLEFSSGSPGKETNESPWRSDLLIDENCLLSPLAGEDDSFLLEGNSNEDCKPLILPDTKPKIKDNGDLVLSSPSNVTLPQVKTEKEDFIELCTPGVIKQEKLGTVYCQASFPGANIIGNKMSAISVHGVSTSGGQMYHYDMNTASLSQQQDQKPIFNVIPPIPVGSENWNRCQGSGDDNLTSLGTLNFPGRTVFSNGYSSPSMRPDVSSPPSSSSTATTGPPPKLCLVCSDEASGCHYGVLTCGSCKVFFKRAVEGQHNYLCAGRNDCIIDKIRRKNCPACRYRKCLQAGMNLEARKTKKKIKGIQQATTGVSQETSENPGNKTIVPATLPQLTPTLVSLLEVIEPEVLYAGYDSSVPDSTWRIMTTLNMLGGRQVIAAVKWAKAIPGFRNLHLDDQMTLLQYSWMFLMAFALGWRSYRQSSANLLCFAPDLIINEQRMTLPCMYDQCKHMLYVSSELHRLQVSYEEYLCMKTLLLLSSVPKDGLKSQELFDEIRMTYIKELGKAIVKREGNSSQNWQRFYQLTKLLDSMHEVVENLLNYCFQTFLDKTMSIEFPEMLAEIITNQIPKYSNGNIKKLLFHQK
Kind of test: Binding affinity to human glucocorticoid receptor at 30 uM by competitive binding based TR-FRET assay.

For test [9], the target named is T1, PPAR alpha/gamma (Homo sapiens). Description: Agonist activity at PPARalpha/PPARgamma in human AT-MSC cells assessed as upregulation of HMGCR mRNA at 10 uM incubated for 3 days by qRT-PCR analysis. Type of test: cell-based. The conditions noted are these: Adipose tissue derived mesenchymal stem cell, filed as agonist, time 3.0 day.
The nature of test [10]: Induction of adipogenesis in human AT-MSC assessed as adiponectin secretion at 30 uM in IDX medium incubated for 5 days by ELISA relative to IDX control. Type of test: functional, Adipose tissue derived mesenchymal stem cell. The conditions noted are these: time 5 day.
The target in test [11] is T1, PPAR alpha/gamma (Homo sapiens). Kind of test: Agonist activity at PPARalpha/PPARgamma in human AT-MSC cells assessed as upregulation of FADS2 mRNA at 10 uM incubated for 3 days by qRT-PCR analysis. In kind it is cell-based. The conditions noted are these: Adipose tissue derived mesenchymal stem cell, filed as agonist, time 3.0 day.
The target is the same in test [12]. Kind of test: Agonist activity at PPARalpha/PPARgamma in human AT-MSC cells assessed as upregulation of HMGCS2 mRNA at 10 uM incubated for 3 days by qRT-PCR analysis. Type of test: cell-based. The conditions noted are these: Adipose tissue derived mesenchymal stem cell, filed as agonist, time 3.0 day.
The target in test [13] is T4, Peroxisome proliferator-activated receptor gamma (Homo sapiens) (UniProt P37231).
T4 sequence (whole entry): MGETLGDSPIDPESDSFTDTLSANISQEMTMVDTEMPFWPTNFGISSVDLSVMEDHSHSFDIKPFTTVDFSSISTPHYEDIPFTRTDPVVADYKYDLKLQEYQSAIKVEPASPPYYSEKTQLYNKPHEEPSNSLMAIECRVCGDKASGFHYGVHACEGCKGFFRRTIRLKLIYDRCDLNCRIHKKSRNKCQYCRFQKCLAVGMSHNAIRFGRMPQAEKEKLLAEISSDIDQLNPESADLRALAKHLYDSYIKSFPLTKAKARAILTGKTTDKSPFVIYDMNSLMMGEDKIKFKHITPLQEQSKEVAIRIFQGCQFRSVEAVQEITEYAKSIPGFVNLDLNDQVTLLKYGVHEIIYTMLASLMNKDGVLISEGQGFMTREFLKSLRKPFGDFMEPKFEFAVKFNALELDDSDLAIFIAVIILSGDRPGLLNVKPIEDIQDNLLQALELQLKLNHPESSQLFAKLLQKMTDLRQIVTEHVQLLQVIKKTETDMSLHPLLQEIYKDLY
Description: Binding affinity to human recombinant PPARgamma at 30 uM by competitive binding based TR-FRET assay relative to control. The conditions noted are these: filed as agonist. (In general: TR-FRET usually uses a lanthanide donor and a delayed reading to cut background.)

The test system of test [14] is NHEK. Description: Inhibition of UVB-induced PTGS2 mRNA in human NHEK cells at 10 uM incubated for 24 hrs by qRT-PCR analysis. In kind it is functional, cell-based.
Test [15] deals with Adipose tissue derived mesenchymal stem cell. Kind of test: Induction of adipogenesis in human AT-MSC cells assessed as increase in intracellular lipid accumulation at 30 uM in IDX medium incubated for 5 days by Oil Red O staining based inverted phase microscopy relative to IDX control. In kind it is functional. The following applies: time 5.0 day.

Take `COc1ccc(OC)c(/C=C/C(=O)OCc2cc(=O)c(O)co2)c1`: the outcome in test [1], in test [3], in test [4], in test [6], in test [7] and in test [9] was Active. In addition, the result in test [11], in test [12] and in [15] was Active. Moreover, the inhibition result in the test with NHEK [2] and with NHEK [14] was “Active” throughout. The values for the Activity in [5] and in test [13] were 59% and 77%, respectively. Moreover, in test [8], the result was inactive. Besides, the “fold change (FC)” value in [10] turned out to be 3.83.

Source of the values: ChEMBL document CHEMBL4673218, “Kojyl cinnamate esters are peroxisome proliferator-activated receptor α/γ dual agonists” (Bioorg Med Chem, 2018).
